Columns and labels:
[1] = tested on: immortalized megakaryocyte cell line; test: Test Example 2: platelet production, shake culturing, with various aryl hydrocarbon receptor antagonists
[2] = tested on: immortalized megakaryocyte cell line; test: Test Example 1: platelet production, shake culturing; assay type: cell-based; settings: for fold induction at 10 µM: Platelet, 144 h, read-out: Amount of platelet production (vs. Control); for Amount of platelet production (vs. Control): aryl hydrocarbon receptor antagonist Compound A5 0.1 μM added at cell seeding, counted after 6 days
Procedure: The immortalized megakaryocyte cell line obtained according to the method described in WO 2016/204256 was washed twice with D-PBS(−) and then cultured in medium not containing doxycycline to terminate forced expression (cultured under conditions where gene expression is OFF). Shake culturing at 100 rpm was performed in the following medium after the cells were seeded in a 125-mL polycarbonate Erlenmeyer flask (Corning #431143) at 25 mL/flask and a seeding density of 1×10^5 cells/mL. Culturing conditions were 37° C. and 5% CO2. The medium was obtained by adding the following components to IMDM serving as the basal medium (concentrations indicate final concentrations). • FBS 15% • L-Glutamine 2 mM • ITS 100-fold dilution • MTG 450 μM • Ascorbic acid 50 μg/mL • SCF 50 ng/mL • TA-316 0.1 μg/mL • ADAM inhibitor 15 μM • ROCK inhibitor 0.5 μM […] After culturing for 6 days in total, the number of platelets was measured. The measurement method was as follows. The same operation was performed for control. At 6 days after initiation of the culturing under conditions where gene expression was OFF, a part of the culture supernatant was collected, and suspended with the following antibody and Flow-Count Fluorospheres (Beckman Coulter #7547053) to perform staining. • APC-labeled anti-CD41 antibody (BioLegend #303710) • eFluor 450-labeled anti-CD42a antibody (eBioscience #48-0428-42) • PE-labeled anti-CD42b antibody (BioLegend #303906) At 30 minutes after staining, number of platelets (CD41, CD42a and CD42b-positive cells) was counted by using FACSVerse (manufactured by BD Japan) with Flow-Count Fluorospheres. The number of platelets was given as a percentage of the control.

[3] = Platelet, 144 h, read-out: Amount of platelet production (vs. Control)
[4] = comparative examples: only an aryl hydrocarbon receptor antagonist, no acrylamide compound, A1 0.75 μM, A2 0.1 μM, A3 10 μM, A4 1 μM, A5 to A8 0.1 μM
[5] = DMSO added at cell seeding (no AhR antagonist), compound 10 μM added at Day 3, platelets (CD41, CD42a, CD42b-positive) counted after 6 days
[6] = with aryl hydrocarbon receptor antagonist Compound A2 0.1 μM, otherwise as Test Example 1

Work on `Cc1ccccc1/N=N/c1ccc(NC(=O)c2ccnn2C)c(C)c1` [Compound A4, 1-Methyl-N-[2-methyl-4-[2-(2-methylphenyl)diazenyl]phenyl]-1H-pyrazole-5-carboxamide, reference compound] yielded a fold induction at 1 µM [1, 3] of 1.5 to 6.5.

For `CC1(C)COc2nc3c(NCCc4ccc(O)c(-c5cccc(C#N)c5)c4)nc(-c4cncc(F)c4)nc3n21` [Compound A5, 3-[5-[2-[[2-(5-Fluoropyridin-3-yl)-8,8-dimethyl-7H-purino[8,9-b][1,3]oxazol-4-yl]amino]ethyl]-2-hydroxyphenyl]benzonitrile, reference compound], the “Amount of platelet production (vs. Control)” value (shortened to “Amount … (vs. Control)”) [1, 4] was “+ (the amount of platelets production increased by not less than 1.5 times and less than 6.5 times)”.

With `CC1(C)COc2nc3c(NCCc4ccc(O)c(-c5cncc(F)c5)c4)nc(-c4cncc(F)c4)nc3n21` [Compound A7, 2-(5-fluoropyridin-3-yl)-4-[2-[[2-(5-fluoropyridin-3-yl)-8,8-dimethyl-7H-purino[8,9-b][1,3]oxazol-4-yl]amino]ethyl]phenol, reference compound] the “Amount … (vs. Control)” value [1, 4] was “+ (the amount of platelets production increased by not less than 1.5 times and less than 6.5 times)”.

For `CC1(C)COc2nc3c(NCCc4ccc(O)c(-c5ccccc5F)c4)nc(-c4cncc(F)c4)nc3n21` [Compound A6, 2-(2-fluorophenyl)-4-[2-[[2-(5-fluoropyridin-3-yl)-8,8-dimethyl-7H-purino[8,9-b][1,3]oxazol-4-yl]amino]ethyl]phenol, reference compound], the “Amount … (vs. Control)” value [1, 4] was “+ (the amount of platelets production increased by not less than 1.5 times and less than 6.5 times)”.

`CCOc1ccccc1CCNC(=O)/C=C/c1c[nH]c2c(CC)cccc12` [Example 57] was tested, and the fold induction at 10 µM [2, 5] was 1.5 to 6.5, the “Amount … (vs. Control)” value ([2]; compound 10 μM added at Day 3) was “++ (not less than 6.5 times)” and the “Amount … (vs. Control)” value [1, 6] was “++ (not less than 6.5 times)”.

In the case of `CCOc1ccccc1CCNC(=O)/C=C/c1c[nH]c2c(C)cccc12` [Example 60], the fold induction at 10 µM [2, 5] is reported as 1.5 to 6.5, the “Amount … (vs. Control)” value ([2]; compound 10 μM added at Day 3) is reported as “++ (not less than 6.5 times)” and the “Amount … (vs. Control)” value [1, 6] is reported as “++ (not less than 6.5 times)”.

`CCOc1ccc(OC)cc1CCNC(=O)/C=C/c1c[nH]c2c(OC)cccc12` [Example 59] was tested, and the fold induction at 10 µM [2, 5] was 1.5 to 6.5, the “Amount … (vs. Control)” value ([2]; compound 10 μM added at Day 3) was “++ (not less than 6.5 times)” and the “Amount … (vs. Control)” value [1, 6] was “++ (not less than 6.5 times)”.

`CC1(C)CSc2nc3c(NCCc4ccc(O)c(-c5ccccc5F)c4)nc(-c4cncc(F)c4)nc3n21` [Compound A8, 2-(2-fluorophenyl)-4-[2-[[2-(5-fluoropyridin-3-yl)-8,8-dimethyl-7H-purino[8,9-b][1,3]thiazol-4-yl]amino]ethyl]phenol, reference compound] was tested, and the fold induction at 0.1 µM [1, 3] was 1.5 to 6.5.

In the case of `COc1cccc2c(/C=C/C(=O)NCCc3ccccc3-c3ncccn3)c[nH]c12` [Example 17, (E)-3-(7-methoxy-1H-indol-3-yl)-N-[2-(2-pyrimidin-2-ylphenyl)ethyl]prop-2-enamide], the fold induction at 10 µM [2, 5] is reported as 1.5 to 6.5 and the “Amount … (vs. Control)” value ([2]; compound 10 μM added at Day 3) is reported as “++ (not less than 6.5 times)”.

With `COc1cccc2c(/C=C/C(=O)NCCc3ccccc3OCC3CC3)c[nH]c12` [Example 6] the fold induction at 10 µM [2] was 1.5 to 6.5 and the “Amount … (vs. Control)” value ([2]; compound 10 μM added at Day 3) was “++ (not less than 6.5 times)”.

In the case of `O=C(/C=C/c1c[nH]c2c(Cl)cccc12)NCCc1ccccc1-c1ncccn1` [Example 48], the fold induction at 10 µM [2, 5] is reported as 1.5 to 6.5 and the “Amount … (vs. Control)” value ([2]; compound 10 μM added at Day 3) is reported as “++ (not less than 6.5 times)”.

With `Cc1cc(-c2ccc(CC(=O)Nc3ccc(-c4cccnc4)cc3)cc2)ccn1` [Compound A3, 4-(2-Methyl-4-pyridinyl)-N-[4-(3-pyridinyl)phenyl]-benzeneacetamide, reference compound] the fold induction at 10 µM [1, 3] was 1.5 to 6.5.

In the case of `COc1cccc2c(/C=C/C(=O)NCCc3ccccc3-c3cccs3)c[nH]c12` [Example 19, (E)-3-(7-methoxy-1H-indol-3-yl)-N-[2-(2-thiophene-2-ylphenyl)ethyl]prop-2-enamide], the fold induction at 10 µM [2, 5] is reported as 1.5 to 6.5 and the “Amount … (vs. Control)” value ([2]; compound 10 μM added at Day 3) is reported as “++ (not less than 6.5 times)”.

Work on `CC(C)n1cnc2c(NCCc3ccc(O)cc3)nc(-c3csc4ccccc34)nc21` [Compound A1, 4-[2-[[2-benzo[b]thien-3-yl-9-(1-methylethyl)-9H-purin-6-yl]amino]ethyl]phenol, reference compound] yielded a fold induction at 0.75 µM [1, 3] of 1.5 to 6.5.

With `COc1cccc2c1ccn2/C=C/C(=O)NCCc1ccccc1-c1ncccn1` [Example 39] the fold induction at 10 µM [2, 5] was 1.5 to 6.5 and the “Amount … (vs. Control)” value ([2]; compound 10 μM added at Day 3) was “++ (not less than 6.5 times)”.

With `COc1cccc2c(/C=C/C(=O)NCCc3ccccc3-c3ccsc3)c[nH]c12` [Example 20] the fold induction at 10 µM [2] was 1.5 to 6.5 and the “Amount … (vs. Control)” value ([2]; compound 10 μM added at Day 3) was “++ (not less than 6.5 times)”.

In the case of `COc1cnc(-c2ccccc2CCNC(=O)/C=C/c2c[nH]c3c(OC)cccc23)nc1` [Example 56], the fold induction at 10 µM [2, 5] is reported as 1.5 to 6.5 and the “Amount … (vs. Control)” value ([2]; compound 10 μM added at Day 3) is reported as “++ (not less than 6.5 times)”.

For `COc1cccc2c(/C=C/C(=O)NCCc3ccccc3-c3ccco3)c[nH]c12` [Example 26], the fold induction at 10 µM [2, 5] was 1.5 to 6.5 and the “Amount … (vs. Control)” value ([2]; compound 10 μM added at Day 3) was “++ (not less than 6.5 times)”.

With `COc1cccc2c(/C=C/C(=O)NCCc3ccccc3-c3ncco3)c[nH]c12` [Example 15] the fold induction at 10 µM [2] was > 6.5 and the “Amount … (vs. Control)” value ([2]; compound 10 μM added at Day 3) was “++ (not less than 6.5 times)”.

In the case of `COc1cccc2c(/C=C/C(=O)NCCc3ccccc3CSC)c[nH]c12` [Example 4], the fold induction at 10 µM [2] is reported as 1.5 to 6.5 and the “Amount … (vs. Control)” value ([2]; compound 10 μM added at Day 3) is reported as “++ (not less than 6.5 times)”.

In the case of `CCOc1ncccc1CCNC(=O)/C=C/c1c[nH]c2c(OC)cccc12` [Example 29, (E)-N-[2-(2-ethoxypyridine-3-yl)ethyl]-3-(7-methoxy-1H-indol-3-yl)prop-2-enamide], the fold induction at 10 µM [2, 5] is reported as 1.5 to 6.5 and the “Amount … (vs. Control)” value ([2]; compound 10 μM added at Day 3) is reported as “++ (not less than 6.5 times)”.

`COc1cccc2c(/C=C/C(=O)NCCc3ccccc3-c3ccccn3)c[nH]c12` [Example 7] was tested, and the fold induction at 10 µM [2, 5] was 1.5 to 6.5 and the “Amount … (vs. Control)” value ([2]; compound 10 μM added at Day 3) was “++ (not less than 6.5 times)”.

For `COc1nccc2c(/C=C/C(=O)NCCc3ccccc3-c3ncccn3)c[nH]c12` [Example 49], the fold induction at 10 µM [2, 5] was 1.5 to 6.5 and the “Amount … (vs. Control)” value ([2]; compound 10 μM added at Day 3) was “++ (not less than 6.5 times)”.

In the case of `COc1cccc2c(/C=C/C(=O)N(C)CCc3ccccc3OCC3CC3)cn(C)c12` [Example 10, (E)-N-[2-[2-(cyclopropylmethoxy)phenyl]ethyl]-3-(7-methoxy-1-methylindol-3-yl)-N-methylprop-2-enamide], the fold induction at 10 µM [2, 5] is reported as 1.5 to 6.5 and the “Amount … (vs. Control)” value ([2]; compound 10 μM added at Day 3) is reported as “++ (not less than 6.5 times)”.

For `COc1cccc2c(/C=C/C(=O)NCCc3cc(F)ccc3-c3ccccc3)c[nH]c12` [Example 12], the fold induction at 10 µM [2, 5] was 1.5 to 6.5 and the “Amount … (vs. Control)” value ([2]; compound 10 μM added at Day 3) was “++ (not less than 6.5 times)”.

In the case of `COc1cccc2c(/C=C/C(=O)NCCc3sccc3-c3ccccn3)c[nH]c12` [Example 32], the fold induction at 10 µM [2, 5] is reported as 1.5 to 6.5 and the “Amount … (vs. Control)” value ([2]; compound 10 μM added at Day 3) is reported as “++ (not less than 6.5 times)”.

In the case of `COc1cccc2c(/C=C/C(=O)NCCc3cccc4ccc(C)nc34)c[nH]c12` [Example 42], the fold induction at 10 µM [2, 5] is reported as 1.5 to 6.5 and the “Amount … (vs. Control)” value ([2]; compound 10 μM added at Day 3) is reported as “++ (not less than 6.5 times)”.

With `COc1cccn2c(/C=C/C(=O)NCCc3ccccc3-c3ncccn3)cnc12` [Example 40] the fold induction at 10 µM [2, 5] was 1.5 to 6.5 and the “Amount … (vs. Control)” value ([2]; compound 10 μM added at Day 3) was “++ (not less than 6.5 times)”.

With `Cc1ccnc2c(/C=C/C(=O)NCCc3ccccc3-c3ncccn3)c[nH]c12` [Example 41] the fold induction at 10 µM [2, 5] was 1.5 to 6.5 and the “Amount … (vs. Control)” value ([2]; compound 10 μM added at Day 3) was “++ (not less than 6.5 times)”.

For `Cc1cccc2c(/C=C/C(=O)NCCc3ccccc3-c3ncccn3)c[nH]c12` [Example 46], the fold induction at 10 µM [2, 5] was 1.5 to 6.5 and the “Amount … (vs. Control)” value ([2]; compound 10 μM added at Day 3) was “++ (not less than 6.5 times)”.

`COCCOc1ccccc1CCNC(=O)/C=C/c1c[nH]c2c(OC)cccc12` [Example 35] was tested, and the fold induction at 10 µM [2, 5] was 1.5 to 6.5 and the “Amount … (vs. Control)” value ([2]; compound 10 μM added at Day 3) was “++ (not less than 6.5 times)”.
